The record followed here is patent US20120034193A1, “TREATMENT OF NEUROTROPHIC FACTOR MEDIATED DISORDERS” (priority 2009, published 2012).

Assay [1] addresses 5-Hydroxytryptamine, 5-HT1B (Rattus norvegicus, UniProt P28564). Description: Binding assay. Conditions: smilagenin 1 μM. The procedure: (§1) The receptor binding was investigated using the following method: Sarsasapogenin was incubated with tissue or cell homogenate that expressed the receptor of interest and a known concentration a radiolabelled compound with affinity for the receptor of interest. After the incubation period the non-bound radiolabelled compound was removed and the amount of specific binding was quantified. The amount of specific binding in the presence and absence of sarsasapogenin were compared and the percent inhibition of the binding of the radiolabelled compound by sarsasapogenin was calculated. The source of the receptor, the incubation conditions, the radiolabelled compound used varied depending on each specific assay.
(§2) Using the same methods as described above, the binding of smilagenin (1 μM) to the receptors listed in Table 2 below, and the effect of smilagenin on the activity of the enzymes listed in Table 2 below, were investigated.

Assay [2] deals with 5-Hydroxytryptamine, 5-HT5A (Homo sapiens, UniProt P47898). Description: Binding assay. The settings on record: smilagenin 1 μM. The protocol:
as §1, §2

Assay [3] deals with Bombesin BB3 (Homo sapiens, UniProt P32247). The assay can be described thus: Binding assay. The settings on record: smilagenin 1 μM. The protocol: as §1, §2
Sequence of Bombesin BB3 (P32247 whole entry): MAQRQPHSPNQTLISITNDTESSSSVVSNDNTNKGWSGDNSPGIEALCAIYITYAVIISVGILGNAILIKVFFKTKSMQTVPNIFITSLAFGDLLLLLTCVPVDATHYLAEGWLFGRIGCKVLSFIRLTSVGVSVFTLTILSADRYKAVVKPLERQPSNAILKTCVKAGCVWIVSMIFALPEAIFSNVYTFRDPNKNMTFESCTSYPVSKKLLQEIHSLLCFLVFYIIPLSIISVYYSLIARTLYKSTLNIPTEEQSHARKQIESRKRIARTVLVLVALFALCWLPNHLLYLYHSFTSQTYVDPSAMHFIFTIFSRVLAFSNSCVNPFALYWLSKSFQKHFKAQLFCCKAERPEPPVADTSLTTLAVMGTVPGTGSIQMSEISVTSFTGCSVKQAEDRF
In assay [4] the target is Calcium Channel N-Type (Rattus norvegicus, UniProt Q02294). Description: Binding assay. The settings on record: smilagenin 1 μM. The procedure: as §1, §2
Assay [5] has as its target Cannabinoid CB2 (Homo sapiens, UniProt P34972). Description: Binding assay. The settings on record: smilagenin 1 μM. The protocol:
as §1, §2

Assay [6] has as its target Melanocortin MC1 (Homo sapiens, UniProt Q01726). The assay can be described thus: Binding assay. The settings on record: smilagenin 1 μM. The procedure:
as §1, §2

Assay [7] has as its target Melatonin MT1 (Homo sapiens, UniProt P48039). Description: Binding assay. Conditions: smilagenin 1 μM. The procedure:
as §1, §2

Assay [8] deals with T1, Muscarinic M2 (Homo sapiens, UniProt P08172).
T1 construct: host or cells: tissue or cell homogenate, not specified
T1 sequence (P08172 whole entry): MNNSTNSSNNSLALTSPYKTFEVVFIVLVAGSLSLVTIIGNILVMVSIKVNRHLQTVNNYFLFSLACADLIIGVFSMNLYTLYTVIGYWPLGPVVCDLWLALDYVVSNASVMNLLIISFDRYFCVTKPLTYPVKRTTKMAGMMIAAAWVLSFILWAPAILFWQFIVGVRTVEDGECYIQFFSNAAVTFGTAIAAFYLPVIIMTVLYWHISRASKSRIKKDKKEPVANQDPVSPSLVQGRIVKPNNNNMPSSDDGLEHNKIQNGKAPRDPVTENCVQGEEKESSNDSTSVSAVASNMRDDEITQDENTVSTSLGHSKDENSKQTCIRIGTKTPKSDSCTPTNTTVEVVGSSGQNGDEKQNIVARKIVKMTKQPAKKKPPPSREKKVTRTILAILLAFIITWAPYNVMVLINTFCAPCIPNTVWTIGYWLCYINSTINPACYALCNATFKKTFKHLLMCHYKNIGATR
Description: Binding assay. Conditions: smilagenin 1 μM. The protocol: as §1, §2

Assay [9] has as its target Ryanodine RyR3 (Rattus norvegicus, UniProt A0ABK0LPH6). The assay can be described thus: Binding assay. Conditions: smilagenin 1 μM. The protocol:
as §1, §2

Assay [10] deals with T2, Vasopressin V2 (Homo sapiens, UniProt P30518).
T2 construct: host or cells: tissue or cell homogenate, not specified
T2 sequence (P30518 whole entry): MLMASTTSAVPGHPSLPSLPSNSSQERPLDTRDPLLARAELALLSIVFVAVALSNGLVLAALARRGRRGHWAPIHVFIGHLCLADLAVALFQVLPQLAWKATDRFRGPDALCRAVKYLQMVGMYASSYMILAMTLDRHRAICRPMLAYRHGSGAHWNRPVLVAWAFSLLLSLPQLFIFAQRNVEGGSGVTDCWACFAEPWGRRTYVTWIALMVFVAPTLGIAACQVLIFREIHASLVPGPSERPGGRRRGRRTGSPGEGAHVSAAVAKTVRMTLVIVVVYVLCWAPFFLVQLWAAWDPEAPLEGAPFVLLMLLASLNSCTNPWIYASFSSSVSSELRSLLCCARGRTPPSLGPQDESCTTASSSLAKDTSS
Description: Binding assay. The settings on record: smilagenin 1 μM. The procedure: as §1, §2

Assay [11] deals with Nicotinic Acetylcholine α7, Bungarotoxin (Rattus norvegicus, UniProt Q05941). The assay can be described thus: Binding assay. Conditions: smilagenin 1 μM.
Sequence of Nicotinic Acetylcholine α7, Bungarotoxin (Q05941 23-502): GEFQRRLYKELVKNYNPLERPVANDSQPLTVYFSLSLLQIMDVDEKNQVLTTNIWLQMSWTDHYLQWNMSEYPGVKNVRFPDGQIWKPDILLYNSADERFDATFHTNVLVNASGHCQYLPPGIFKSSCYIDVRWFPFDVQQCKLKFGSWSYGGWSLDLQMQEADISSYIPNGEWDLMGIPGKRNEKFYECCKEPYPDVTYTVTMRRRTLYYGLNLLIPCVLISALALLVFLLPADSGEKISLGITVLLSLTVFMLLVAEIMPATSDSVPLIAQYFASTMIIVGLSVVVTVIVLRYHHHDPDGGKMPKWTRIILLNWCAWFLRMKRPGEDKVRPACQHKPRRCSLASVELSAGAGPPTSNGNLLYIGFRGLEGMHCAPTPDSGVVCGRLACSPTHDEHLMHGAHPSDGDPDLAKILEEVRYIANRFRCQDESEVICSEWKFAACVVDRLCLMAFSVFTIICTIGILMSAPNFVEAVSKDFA
The target of assay [12] is 5-Hydroxytryptamine, 5-HT4 (Cavia porcellus, UniProt O70528). The assay can be described thus: Binding assay. The arrangement: species or system Guinea pig. The settings on record: smilagenin 1 μM. The protocol:
as §1, §2

Assay [13] concerns Atrial Natriuretic Factor. Description: Binding assay. Also noted: species or system Guinea pig. Conditions: smilagenin 1 μM. The protocol: as §1, §2
The subject of assay [14] is Transporter, Adenosine. The assay can be described thus: Binding assay. The arrangement: species or system Guinea pig. The settings on record: smilagenin 1 μM. The protocol: as §1, §2
For assay [15], the system named is Protein Serine/Threonine Kinase, PKC, Non-Selective. Description: Functional assay. Type of assay: biochemical, Rat. The settings on record: smilagenin 1 μM. The procedure: (§3) The enzyme activity modulation was investigated using the following method: Sarsasapogenin was incubated with each enzyme plus a specific substrate for each enzyme. After the incubation period the reaction was stopped and the reduction of the specific substrate or the increase in a specific product in the absence and presence of sarsasapogenin was measured and the percent inhibition of the reaction in the presence of sarsasapogenin was calculated. The amount of enzyme used, the incubation conditions, the substrate used and the method of quantification varied depending on each specific assay.
as §2

Assay [16] in a line: Functional assay. The settings on record: smilagenin 1 μM. Type of assay: biochemical. The procedure: as §3, §2
In assay [17] the test system is Free Radical Scavenger, SOD Mimetic. The assay can be described thus: Functional assay. Conditions: smilagenin 1 μM. Type of assay: biochemical, Bovine. The protocol:
as §3, §2

Assay [18] deals with Rat dopaminergic neurones. Description: TH positive neurones and neurite outgrowth after MPP+ exposure. Type of assay: cell-based. The settings on record: 10 μM from day 6, MPP+ 2 μM day 8 for 48 h. The procedure: Rat dopaminergic neurones were prepared using a slightly modified previously described method (Brouard et al., Journal of Neuroscience, 1992, 12, pp. 1409-1415). On day 6 the culture medium was replaced with fresh medium or fresh medium containing smilagenin (10 μM) or vehicle (DMSO, 0.25%). On day 8, MPP^+ (2 μM) or vehicle (saline) was added and 48 h later dopaminergic neurones were stained and the concentration of GDNF in the culture medium, neuronal damage and neurite outgrowth were assessed.

Assay [19] deals with BDNF. The assay can be described thus: Striatal BDNF in MPTP-lesioned mice (ELISA). Type of assay: in vivo, C57b1/6 RJ mice. Conditions: smilagenin 10 mg/kg/day oral, 60 days, striatum. The procedure:
Seven-week old male C57b1/6 RJ mice (C57 mice) received daily injections 1-methyl-4-phenyl-1,2,3,6-tetrahydropyridine (MPTP, 25 mg/kg/day, i.p., for 5 consecutive days) and oral administration of smilagenin (10 mg/kg/day) or vehicle (hydroxylpropylmethylcellulose, HPMC 0.5% w/v containing tween-80 0.2% v/v) for 60 days after which time their brains were removed for quantification of striatal levels of GDNF and BDNF using an ELISA and of dopamine transporter (DAT) levels using [I^125]-RTI binding. DAT is a marker for neuronal damage to dopaminergic neurones.

Assay [20] deals with GDNF. Description: Unbound GDNF in the putamen of MPTP-lesioned macaques. Type of assay: in vivo, Macaca fascicularis. The settings on record: smilagenin 20 mg/kg/day p.o., 18 weeks; control 9.52, MPTP 15.33. The protocol:
(§4) Nineteen female cynomolgus monkeys (Macaca fascicularis, 3.0-4.5 kg, 4-6 years old) were acclimatised to the experimental setting and procedures for 3 months and baseline behaviour was assessed in all animals. Fourteen female macaques received MPTP (0.2 mg/kg/day, s.c.) until marked, stable, parkinsonian symptoms developed. Animals (n=7/group) were randomly assigned to two groups; smilagenin (20 mg/kg/day, p.o.) or vehicle control (HPMC, 0.5% w/v containing Tween 80, 0.2% v/v).
(§5) Assessments of parkinsonian disability were made after MPTP administration and following 18 weeks of smilagenin or vehicle administration. Parkinsonian disability was evaluated by post hoc analysis of DVD-recordings by a neurologist blinded to the treatment. At the end of the study the brains were removed and the levels of unbound GDNF and BDNF in the putamen were measured using Multiplex ELISA/Aushon assays. The MPTP treated macaques used in this experiment thus provide an accepted model for Parkinson's disease and similar motor-sensory neurodegenerative conditions.

Assay [21] concerns BDNF. The assay can be described thus: Unbound BDNF in the putamen of MPTP-lesioned macaques. Conditions: smilagenin 20 mg/kg/day p.o., 18 weeks; control 257.58, MPTP 388.73. Type of assay: in vivo, Macaca fascicularis. The procedure: as §4, §5
The target in assay [22] is T3, Histamine H1 (Cavia porcellus, UniProt P31389).
T3 construct: host or cells: tissue or cell homogenate, not specified
T3 sequence (P31389 whole entry): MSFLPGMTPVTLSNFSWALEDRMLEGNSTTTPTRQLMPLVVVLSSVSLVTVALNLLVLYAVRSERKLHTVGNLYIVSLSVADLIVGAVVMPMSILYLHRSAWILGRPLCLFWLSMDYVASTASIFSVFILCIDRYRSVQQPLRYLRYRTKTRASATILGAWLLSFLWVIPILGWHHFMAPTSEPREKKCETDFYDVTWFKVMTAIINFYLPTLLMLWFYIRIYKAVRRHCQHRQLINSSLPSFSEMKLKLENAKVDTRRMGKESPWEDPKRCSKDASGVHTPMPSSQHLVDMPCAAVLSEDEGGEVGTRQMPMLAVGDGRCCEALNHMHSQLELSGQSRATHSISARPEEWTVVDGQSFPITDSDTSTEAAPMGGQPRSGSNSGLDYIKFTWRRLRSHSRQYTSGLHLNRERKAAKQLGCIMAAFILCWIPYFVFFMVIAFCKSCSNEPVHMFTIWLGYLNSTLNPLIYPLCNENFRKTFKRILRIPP
Description: Receptor binding assay. The arrangement: species or system Guinea Pig. Conditions: sarsasapogenin 10 μM. The procedure:
as §1

Sequence of 5-Hydroxytryptamine, 5-HT1B (P28564 whole entry): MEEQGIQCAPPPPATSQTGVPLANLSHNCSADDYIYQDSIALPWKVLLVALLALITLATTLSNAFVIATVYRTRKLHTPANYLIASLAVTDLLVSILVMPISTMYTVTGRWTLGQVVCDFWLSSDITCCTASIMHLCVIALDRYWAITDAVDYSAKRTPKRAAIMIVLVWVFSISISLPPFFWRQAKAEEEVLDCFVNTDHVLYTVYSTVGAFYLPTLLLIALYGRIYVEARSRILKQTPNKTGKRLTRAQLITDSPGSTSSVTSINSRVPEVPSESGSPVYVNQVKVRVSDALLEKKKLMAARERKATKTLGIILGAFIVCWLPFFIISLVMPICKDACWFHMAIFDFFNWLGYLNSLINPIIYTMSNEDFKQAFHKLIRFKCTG
Sequence of 5-Hydroxytryptamine, 5-HT5A (P47898 whole entry): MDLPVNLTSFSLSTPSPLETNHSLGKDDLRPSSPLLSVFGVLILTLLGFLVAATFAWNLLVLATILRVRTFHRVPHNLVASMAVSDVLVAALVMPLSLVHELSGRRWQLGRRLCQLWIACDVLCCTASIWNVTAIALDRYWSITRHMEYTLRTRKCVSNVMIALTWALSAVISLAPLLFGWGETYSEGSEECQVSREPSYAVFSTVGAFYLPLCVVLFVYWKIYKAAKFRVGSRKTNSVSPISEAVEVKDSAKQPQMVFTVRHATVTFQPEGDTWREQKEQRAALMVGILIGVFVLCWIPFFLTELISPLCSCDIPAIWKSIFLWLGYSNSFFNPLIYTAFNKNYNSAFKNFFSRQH
Sequence of 5-Hydroxytryptamine, 5-HT4 (O70528 whole entry): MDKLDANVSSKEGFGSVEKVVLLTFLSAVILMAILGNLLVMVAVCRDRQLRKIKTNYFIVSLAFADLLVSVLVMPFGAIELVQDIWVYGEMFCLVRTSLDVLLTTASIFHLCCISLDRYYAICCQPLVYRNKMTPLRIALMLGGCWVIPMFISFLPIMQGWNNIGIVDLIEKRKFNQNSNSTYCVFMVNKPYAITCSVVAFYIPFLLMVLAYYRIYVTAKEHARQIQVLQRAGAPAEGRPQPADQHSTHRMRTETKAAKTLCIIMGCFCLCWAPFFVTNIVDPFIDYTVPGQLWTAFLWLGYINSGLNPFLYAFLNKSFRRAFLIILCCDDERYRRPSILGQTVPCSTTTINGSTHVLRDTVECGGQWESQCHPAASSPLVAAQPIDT
Sequence of Melanocortin MC1 (Q01726 whole entry): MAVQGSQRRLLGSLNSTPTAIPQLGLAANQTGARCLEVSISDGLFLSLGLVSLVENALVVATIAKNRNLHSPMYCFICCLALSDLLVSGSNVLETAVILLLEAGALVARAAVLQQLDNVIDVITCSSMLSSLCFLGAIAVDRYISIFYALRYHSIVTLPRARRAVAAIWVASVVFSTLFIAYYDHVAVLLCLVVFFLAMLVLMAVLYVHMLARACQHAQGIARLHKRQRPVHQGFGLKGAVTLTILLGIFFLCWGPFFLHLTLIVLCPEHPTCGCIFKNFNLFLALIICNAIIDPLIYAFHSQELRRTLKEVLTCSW
Sequence of Cannabinoid CB2 (P34972 whole entry): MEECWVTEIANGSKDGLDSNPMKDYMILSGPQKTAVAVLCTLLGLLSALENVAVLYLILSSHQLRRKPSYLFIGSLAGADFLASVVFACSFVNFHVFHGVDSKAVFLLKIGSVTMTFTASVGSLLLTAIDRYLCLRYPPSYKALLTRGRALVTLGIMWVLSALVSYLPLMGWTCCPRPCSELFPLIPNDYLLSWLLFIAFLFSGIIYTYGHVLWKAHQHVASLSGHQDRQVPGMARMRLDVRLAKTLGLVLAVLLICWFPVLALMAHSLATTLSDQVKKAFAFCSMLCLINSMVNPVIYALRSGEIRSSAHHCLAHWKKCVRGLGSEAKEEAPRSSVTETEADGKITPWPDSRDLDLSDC
Sequence of Melatonin MT1 (P48039 whole entry): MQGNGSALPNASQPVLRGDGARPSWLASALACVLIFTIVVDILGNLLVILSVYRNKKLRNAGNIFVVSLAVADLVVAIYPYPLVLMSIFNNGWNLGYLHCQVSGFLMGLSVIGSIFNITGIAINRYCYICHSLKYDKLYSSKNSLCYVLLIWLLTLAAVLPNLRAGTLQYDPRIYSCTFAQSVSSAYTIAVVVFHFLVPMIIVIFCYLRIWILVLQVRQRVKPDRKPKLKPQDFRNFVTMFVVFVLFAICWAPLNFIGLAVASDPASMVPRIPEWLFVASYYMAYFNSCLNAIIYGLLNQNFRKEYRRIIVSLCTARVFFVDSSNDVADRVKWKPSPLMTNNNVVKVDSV

For `C[C@@H]1CC[C@@]2(OC1)O[C@H]1C[C@H]3[C@@H]4CC[C@@H]5C[C@@H](O)CC[C@]5(C)[C@H]4CC[C@]3(C)[C@H]1[C@@H]2C` [Smilagenin, smilagenin], the “Effect (%)” value in assay [1], in assay [2], in assay [3], in assay [4], in assay [5] and in assay [6] was “NS (NS = No significant response. Significance was taken as ≧30% stimulation or inhibition)” throughout. Besides, the “Effect (%)” value in [7], in assay [8], in assay [9], in assay [10], in [11] and in assay [12] was “NS (NS = No significant response. Significance was taken as ≧30% stimulation or inhibition)” each time. In addition, the “Effect (%)” value in assay [13], in [14], in [15], in [16] and in assay [17] was “NS (NS = No significant response. Significance was taken as ≧30% stimulation or inhibition)” in each case. Also, the “Neurite outgrowth (% of control)” value in [18] was 62.1 ± 7.0 % of control. Further, in assay [18], the “Number of TH positive neurones per field (% of control)” value was 57.1 ± 5.2 % of control. For the same compound, the “BDNF (% increase above MPTP mice)” value in assay [19] was 164 ± 53 %. The “BDNF (pg/mg tissue)” value in assay [19] is on record as 46.91 ± 9.97 pg/mg tissue. Also, the “Mean ± s.e.mean of unbound GDNF level in the putamen (pg/mg protein)” value in [20] is recorded as 5.09 ± 1.35 pg/mg protein. Also, the “Mean ± s.e.mean of unbound BDNF level in the putamen (pg/mg protein)” value in assay [21] was determined as 208.27 ± 36.58 pg/mg protein.

Turning to `C[C@H]1CC[C@@]2(OC1)O[C@H]1C[C@H]3[C@@H]4CC[C@@H]5C[C@@H](O)CC[C@]5(C)[C@H]4CC[C@]3(C)[C@H]1[C@@H]2C` [Sarsasapogenin, sarsasapogenin], the “Effect (%)” value in assay [22] is reported as “NS (NS = No significant response. Significance was taken as ≧30% stimulation or inhibition)”.
